In assay [1] the target is T1, UGT1A9 (Homo sapiens, UniProt O60656).
T1 construct: pooled HLMs (0.25 mg/mL); tissue XenoTech H2630; host or cells: pooled human liver microsomes, mixed gender
T1 sequence (O60656 26-530): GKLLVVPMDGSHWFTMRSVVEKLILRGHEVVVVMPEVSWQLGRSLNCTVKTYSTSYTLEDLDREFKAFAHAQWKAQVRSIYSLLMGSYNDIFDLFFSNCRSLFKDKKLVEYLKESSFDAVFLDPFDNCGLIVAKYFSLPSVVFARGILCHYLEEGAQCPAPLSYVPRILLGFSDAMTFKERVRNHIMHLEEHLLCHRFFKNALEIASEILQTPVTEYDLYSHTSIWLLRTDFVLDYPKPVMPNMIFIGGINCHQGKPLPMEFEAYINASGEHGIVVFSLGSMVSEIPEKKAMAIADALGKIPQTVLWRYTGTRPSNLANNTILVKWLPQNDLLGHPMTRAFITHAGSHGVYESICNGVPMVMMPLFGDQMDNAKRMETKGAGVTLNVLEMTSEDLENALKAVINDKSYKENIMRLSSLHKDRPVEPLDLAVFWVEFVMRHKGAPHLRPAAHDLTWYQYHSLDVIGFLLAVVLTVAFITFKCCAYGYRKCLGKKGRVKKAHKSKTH
Briefly: UGT1A9 inhibition in HLMs (mycophenolic acid). The class given is in vitro ADME. The note with it: average in triplicate, read-out: IC50, UGT 1A9. As to the method:
(§1) The inhibitory potential of six lignans on six UGT activities was evaluated using the previously developed cocktail method with slight modifications. […] These substrates are known to be selective for each UGT isoforms.

The target of assay [2] is T2, CYP1A2 (Homo sapiens, UniProt P05177).
T2 construct: pooled HLMs (0.25 mg/mL); tissue XenoTech H2630; host or cells: pooled human liver microsomes, mixed gender
T2 sequence (P05177 1-516): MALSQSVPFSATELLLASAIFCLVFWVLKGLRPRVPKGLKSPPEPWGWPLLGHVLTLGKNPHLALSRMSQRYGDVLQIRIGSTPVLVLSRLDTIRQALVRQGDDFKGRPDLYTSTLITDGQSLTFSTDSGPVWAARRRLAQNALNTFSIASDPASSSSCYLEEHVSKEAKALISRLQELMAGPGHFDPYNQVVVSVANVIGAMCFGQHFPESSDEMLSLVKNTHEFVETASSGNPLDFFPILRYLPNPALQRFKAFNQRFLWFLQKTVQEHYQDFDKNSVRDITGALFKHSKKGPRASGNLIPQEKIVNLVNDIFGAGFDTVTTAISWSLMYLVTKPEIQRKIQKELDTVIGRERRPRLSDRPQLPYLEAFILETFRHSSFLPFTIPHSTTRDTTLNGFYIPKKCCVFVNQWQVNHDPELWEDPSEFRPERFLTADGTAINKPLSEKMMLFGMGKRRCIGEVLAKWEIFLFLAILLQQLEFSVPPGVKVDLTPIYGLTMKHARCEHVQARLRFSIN
Nature of the assay: CYP1A2 inhibition in HLMs (phenacetin, cocktail, IC50 and IC50 shift). The assay is classed as in vitro ADME. As for the experimental part:
(§2) Lignans were first dissolved in methanol. […] All microsomal incubations were performed in triplicate.

The target of assay [3] is T3, UGT1A4 (Homo sapiens, UniProt P22310).
T3 construct: pooled HLMs (0.25 mg/mL); tissue XenoTech H2630; host or cells: pooled human liver microsomes, mixed gender
T3 sequence (P22310 29-534): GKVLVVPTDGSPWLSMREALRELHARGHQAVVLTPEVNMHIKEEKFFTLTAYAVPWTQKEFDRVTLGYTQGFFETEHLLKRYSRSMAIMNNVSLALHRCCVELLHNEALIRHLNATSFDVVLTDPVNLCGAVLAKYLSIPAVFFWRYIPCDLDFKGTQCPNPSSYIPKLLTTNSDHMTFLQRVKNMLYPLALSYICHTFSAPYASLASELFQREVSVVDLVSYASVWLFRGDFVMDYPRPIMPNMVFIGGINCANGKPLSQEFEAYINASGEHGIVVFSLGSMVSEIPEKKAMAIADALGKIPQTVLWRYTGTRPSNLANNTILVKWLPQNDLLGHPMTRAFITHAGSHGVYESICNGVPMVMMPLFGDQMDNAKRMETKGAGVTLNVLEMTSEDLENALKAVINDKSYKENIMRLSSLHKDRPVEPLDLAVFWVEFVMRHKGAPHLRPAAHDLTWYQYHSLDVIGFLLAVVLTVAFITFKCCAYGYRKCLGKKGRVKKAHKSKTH
Nature of the assay: UGT1A4 inhibition in HLMs (trifluoperazine). The assay is classed as in vitro ADME. The settings on record: average in triplicate, read-out: IC50, UGT 1A4. As to the method: as §1

The target of assay [4] is T4, CYP2B6 (Homo sapiens, UniProt P20813).
T4 construct: pooled HLMs (0.25 mg/mL); tissue XenoTech H2630; host or cells: pooled human liver microsomes, mixed gender
T4 sequence (P20813 1-491): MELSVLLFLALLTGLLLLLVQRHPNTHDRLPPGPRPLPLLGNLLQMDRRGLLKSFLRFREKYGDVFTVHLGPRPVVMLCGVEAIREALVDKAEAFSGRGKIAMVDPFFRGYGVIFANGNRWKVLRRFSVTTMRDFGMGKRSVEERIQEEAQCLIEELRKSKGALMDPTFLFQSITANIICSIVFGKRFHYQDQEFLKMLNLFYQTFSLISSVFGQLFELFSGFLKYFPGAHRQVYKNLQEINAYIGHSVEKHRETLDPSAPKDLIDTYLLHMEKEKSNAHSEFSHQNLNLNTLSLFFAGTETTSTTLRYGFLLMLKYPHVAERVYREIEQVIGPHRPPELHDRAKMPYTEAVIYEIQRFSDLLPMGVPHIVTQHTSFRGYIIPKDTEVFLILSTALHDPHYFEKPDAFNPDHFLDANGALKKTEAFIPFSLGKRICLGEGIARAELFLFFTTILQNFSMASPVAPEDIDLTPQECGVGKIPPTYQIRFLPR
Briefly: CYP2B6 inhibition in HLMs (bupropion). The class given is in vitro ADME. As for the experimental part:
as §2

The target in assay [5] is CYP2C9 (Homo sapiens, UniProt P11712). Briefly: CYP2C9 inhibition in HLMs (diclofenac).
Chain of CYP2C9 (P11712 whole entry): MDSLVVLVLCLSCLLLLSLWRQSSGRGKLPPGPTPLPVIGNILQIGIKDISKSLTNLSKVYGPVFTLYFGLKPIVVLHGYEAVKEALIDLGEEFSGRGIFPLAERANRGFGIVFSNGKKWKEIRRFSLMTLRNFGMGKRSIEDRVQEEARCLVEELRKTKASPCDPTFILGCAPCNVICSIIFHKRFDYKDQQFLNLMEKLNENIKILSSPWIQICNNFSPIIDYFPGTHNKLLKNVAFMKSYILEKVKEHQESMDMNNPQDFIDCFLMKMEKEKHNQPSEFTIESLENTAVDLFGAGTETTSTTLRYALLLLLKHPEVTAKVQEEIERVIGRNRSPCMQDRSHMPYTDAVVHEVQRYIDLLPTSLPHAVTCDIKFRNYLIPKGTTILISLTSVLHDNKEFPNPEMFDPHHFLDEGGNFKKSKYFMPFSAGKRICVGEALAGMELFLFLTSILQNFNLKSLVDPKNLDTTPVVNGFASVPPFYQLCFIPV
Protocol: Lignans were first dissolved in methanol. The final organic solvent concentration in the incubation media was ≤1.0% (v/v). The microsomal incubation was conducted using two cocktail sets containing non-interactive substrates: set A containing phenacetin, bupropion, amodiaquine, diclofenac, S-mephenytoin, and dextromethorphan as substrates for CYP1A2, CYP2B6, CYP2C8, CYP2C9, CYP2C19, and CYP2D6, respectively; and set B containing coumarin and chlorzoxazone as substrates for CYP2A6 and CYP2E1, and midazolam, nifedipine, and testosterone as substrates for CYP3A4 (Table 1). These substrates are known to be selective for each P450 isoforms. Incubation mixtures containing potassium phosphate buffer (0.1 M, pH 7.4), pooled HLMs (0.25 mg/mL), P450 probe substrate cocktails, and lignan (0~50 μM) were pre-incubated at 37 °C (5 min). Following pre-incubation, an NADPH generating system (1.3 mM NADP^+, 3.3 mM G6P, 1 unit/mL G6PDH, and 3.3 mM MgCl2) was added to initiate the reaction, and further incubated for 10 min. The reaction was quenched with 50 μL of cold acetonitrile containing internal standard (IS; 7 nM trimipramine). After centrifugation at 14,000 rpm (5 min at 4 °C), aliquots of supernatants were filtered through a 0.2 μm membrane filter and were measured by liquid chromatography-tandem mass spectrometry (LC-MS/MS). All microsomal incubations were performed in triplicate.
The mark [6] stands for this setting: HLMs, 30 min pre-incubation with NADPH generating system, read-out: IC50 TDI, CYP1A2.
Setting [7] is: HLMs, reversible inhibition, no 30 min NADPH pre-incubation, read-out: IC50 RI, CYP1A2.
Setting [8] is: 30 min pre-incubation with NADPH generating system, read-out: IC50 TDI, CYP2B6.
The mark [9] stands for this setting: reversible inhibition, read-out: IC50 RI, CYP2B6.
[10] abbreviates: IC50 TDI, 30 min pre-incubation with NADPH generating system.

Molecules are shown by their SMILES. Like-named read-outs stand apart in the source and are kept apart here.

The term IC50 denotes the midpoint of a concentration-inhibition curve. With `COc1cc2c(c(OC)c1OC)-c1c(cc3c(c1OC)OCO3)C[C@H](C)[C@H](C)C2` [Gomisin N, gomisin N], the 50% inhibitory concentration (IC50) in assay [1] was > 50 µM; in assay [2] (setting [6]) it was > 50 µM; in assay [2] (setting [7]), > 50 µM; in assay [3] it was > 50 µM; in assay [4] (setting [8]), > 50 µM; in assay [4] (setting [9]), 38.3 µM. The IC50 is 36.2 µM in assay [5] (IC50 RI, reversible inhibition) and 10.9 µM in assay [5] (setting [10]).
Regarding `COc1cc2c(c(OC)c1OC)-c1c(cc3c(c1OC)OCO3)C[C@H](C)[C@](C)(O)[C@H]2OC(=O)c1ccccc1` [Gomisin C, gomisin C], the IC50 in assay [1] is > 50 µM; in assay [2] (setting [6]), > 50 µM; in assay [2] (setting [7]), > 50 µM; in assay [3], > 50 µM; in assay [4] (setting [8]) it was > 50 µM; in assay [4] (setting [9]) it was 33.1 µM. Further, the IC50 in assay [5] (IC50 RI, reversible inhibition) was > 50 µM; in assay [5] (setting [10]), > 50 µM.
For `COc1c2c(cc3c1-c1c(cc4c(c1OC)OCO4)C[C@H](C)[C@H](C)C3)OCO2` [Wuweizisu C, wuweizisu C], the concentration for half-maximal inhibition (IC50) in assay [1] is > 50 µM; in assay [2] (setting [6]) it was 22.4 µM; in assay [2] (setting [7]) it was 25.6 µM; in assay [3] it was > 50 µM; in assay [4] (setting [8]) it was 1.4 µM; in assay [4] (setting [9]), 2.9 µM. Besides, the IC50 amounted to 8.9 µM in assay [5] (IC50 RI, reversible inhibition) and 3.6 µM in assay [5] (setting [10]).
With `COc1cc2c(c(OC)c1OC)-c1c(cc(OC)c(OC)c1OC)C[C@](C)(O)[C@@H](C)C2` [Schisandrin, schisandrin], the 50% inhibitory concentration (IC50) in assay [1] was > 50 µM; in assay [2] (IC50 RI, CYP1A2, HLMs, reversible inhibition, no 30 min NADPH pre-incubation), 4 µM; in assay [2] (IC50 TDI, CYP1A2, HLMs, 30 min pre-incubation with NADPH generating system), > 50 µM; in assay [3] it was > 50 µM; in assay [4] (setting [8]), > 50 µM; in assay [4] (setting [9]) it was 14.7 µM. Moreover, the IC50 in assay [5] (IC50 RI, reversible inhibition) is 43 µM; in assay [5] (setting [10]), > 50 µM.

For the origin of these results see PMC8000448, “Inhibitory Effects of Schisandra Lignans on Cytochrome P450s and Uridine 5′-Diphospho-Glucuronosyl Transferases in Human Liver Microsomes” (Pharmaceutics, 2021).
